13 compounds from PubChem BioAssay (NCI) can be followed below.

Assay in all cases: NCI tumour cell line growth inhibition, 48 h
Experiment [1] concerns OVCAR-4 ovarian.
Experiment [2] concerns UO-31 renal.
In experiment [3] the test system is EKVX NSCLC.
The test system of experiment [4] is A549 NSCLC.
The subject of experiment [5] is NCI-H522 lung.
Experiment [6] relates to OVCAR-5 ovarian.
Experiment [7] relates to CAKI-1 renal.
Experiment [8] deals with RXF 393 renal.
Experiment [9] relates to KM12 colon.
The subject of experiment [10] is M14 melanoma.
Experiment [11] has as its system HL-60(TB) leukemia.
The test system of experiment [12] is 786-0 renal.
For experiment [13], the system named is HT29 colon.
Experiment [14] concerns SR leukemia.
Experiment [15] has as its system TK-10 renal.
Experiment [16] concerns A498 renal.
The subject of experiment [17] is SF-539 CNS.
For experiment [18], the system named is SK-MEL-28 melanoma.
Experiment [19] relates to MDA-MB-231 breast.

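1) Cells in 96-well plates. 2) Compound, 48 h, 5 concentrations. 3) Linear interpolation between surrounding doses. 4) Unreached endpoint = highest concentration. Definition used: TGI = concentration required for complete inhibition of growth.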 Some results are limits rather than exact numbers.

`CC(=O)c1ccc(NC(=O)C(=O)C(C(=O)c2ccc(Cl)c(Cl)c2)C2OC(=O)c3ccccc32)cc1` (centres undefined): the TGI in [1] was greater than 100 µM; in experiment [2] it was greater than 100 µM; in experiment [3] it was greater than 100 µM; in [4] it was 58.2 µM; in experiment [5], 22.1 µM; in [6] it was 71.5 µM. The TGI is greater than 100 µM in experiment [7]; 17.4 µM in experiment [8]; 38.1 µM in [9]; 41 µM in experiment [10]; greater than 100 µM in experiment [11]; 33.8 µM in experiment [12]. Also, the TGI in [13] was 67.7 µM; in experiment [14], greater than 100 µM; in experiment [15], greater than 100 µM; in [16] it was 37.6 µM.
For `Cc1cn([C@H]2C[C@@H]3[C@@H](COC(CCl)N3O)O2)c(=O)[nH]c1=O` (some centres undefined), the TGI in experiment [17], in experiment [1], in experiment [2], in [3], in experiment [4] and in [5] was greater than 100 µM in each case. Besides, the TGI in [6], in [7], in experiment [8], in [9], in [10] and in experiment [11] was greater than 100 µM throughout. Also, the TGI in [12], in [13], in experiment [14], in [18], in experiment [15] and in [16] was greater than 100 µM each time.
In the case of `CC(C)(C)OC(=O)CC(NC(=O)OC(C)(C)C)C(=O)NC(C(=O)O)C(O)c1ccccc1` (centres undefined), the TGI in [17], in experiment [1], in experiment [2], in experiment [19], in experiment [3] and in experiment [4] was greater than 100 µM throughout. Further, the TGI in experiment [5], in [6], in experiment [7], in experiment [8], in experiment [9] and in [10] was greater than 100 µM each time. For the same compound, the TGI in experiment [12], in experiment [13], in experiment [18], in experiment [15] and in [16] was greater than 100 µM throughout.
On to `C/C=C1\CNC1C(=O)O` (centres undefined), for which the TGI in [17], in experiment [1], in [2], in experiment [3], in experiment [4] and in experiment [6] was greater than 100 µM throughout. In addition, the TGI in experiment [7], in experiment [11], in [12], in experiment [13], in experiment [18] and in experiment [15] was greater than 100 µM each time. Also, in experiment [16], the TGI was greater than 100 µM.
`CN(C)C1(N(C)C)Oc2c(c(=O)n(C)c(=O)n2C)C(c2ccccc2Br)C1(F)F` (centres undefined): the TGI in experiment [17], in experiment [1], in [2], in [19], in experiment [3] and in experiment [4] was greater than 100 µM throughout. In addition, the TGI in experiment [6], in [7], in experiment [8], in experiment [9], in experiment [10] and in experiment [12] was greater than 100 µM each time. The TGI in [18], in experiment [15] and in experiment [16] was greater than 100 µM each time.
For the compound `CC(C)[Si](OC1=C(C(=O)N(C)c2ccccc2Cl)CCCCC1)(C(C)C)C(C)C`, the TGI in experiment [17], in experiment [1], in experiment [2], in [19], in experiment [3] and in experiment [4] was greater than 100 µM throughout. Further, the TGI in experiment [5], in experiment [6], in experiment [7], in experiment [8], in experiment [9] and in experiment [10] was greater than 100 µM each time. Moreover, the TGI in experiment [12], in experiment [13], in [18], in experiment [15] and in experiment [16] was greater than 100 µM in each case.
In the case of `Cc1cc(O)c(C=NC(=S)c2ccccc2)c(=O)o1`, the TGI in experiment [17], in [1], in experiment [2], in experiment [19], in experiment [3] and in experiment [4] was greater than 100 µM each time. Further, the TGI in experiment [6], in experiment [7], in experiment [9], in [10], in [12] and in [13] was greater than 100 µM in each case. In addition, the TGI in experiment [18] and in experiment [15] was greater than 100 µM each time.
Take `CN(C)C(=S)N/N=C(\C(=N/NC(=S)N(C)C)c1ccccn1)c1ccccn1`: the TGI in experiment [17] is greater than 100 µM; in experiment [1] it was 26.8 µM; in experiment [2], 21.6 µM; in experiment [19], 43.1 µM; in experiment [3] it was 36.7 µM; in [4], 27.3 µM. For the same compound, the TGI was 9.26 µM in experiment [5]; 55.1 µM in [6]; 34.1 µM in experiment [7]; 18.1 µM in [8]; 33.6 µM in experiment [9]; 42.3 µM in [10]. Besides, the TGI was determined as 27 µM in experiment [12]; 17.6 µM in experiment [13]; 34.4 µM in experiment [18]; 22.2 µM in experiment [15]; 30.2 µM in experiment [16].
Take `CC1=CC(=O)C(=CN2C(=O)/C(=C\c3cccnc3)NC2=S)C(=O)O1`: the TGI in experiment [17], in experiment [1], in [2], in experiment [19], in experiment [3] and in experiment [4] was greater than 100 µM in each case. In addition, the TGI in experiment [6], in [7], in [9], in experiment [10], in experiment [11] and in [12] was greater than 100 µM throughout. Moreover, the TGI in experiment [13], in [18] and in experiment [15] was greater than 100 µM each time.
For `CC(=O)C1=C(C)N2C(=NC3=C(CCc4ccccc43)C2c2cccc(Br)c2)S1` (centres undefined), the TGI in experiment [17], in experiment [1], in [2], in [19], in [3] and in [4] was greater than 100 µM each time. Also, the TGI in experiment [6], in experiment [8], in experiment [9], in experiment [10], in experiment [11] and in experiment [12] was greater than 100 µM each time. The TGI in experiment [13], in experiment [18] and in [16] was greater than 100 µM throughout.
Take `O=C1C2=Cc3ccccc3OC2(O)Oc2ccc(O)cc21` (centres undefined): the TGI in experiment [17], in [19], in experiment [3], in [4], in [6] and in experiment [7] was greater than 100 µM throughout. Further, the TGI in [8], in experiment [9], in experiment [10], in experiment [12], in [13] and in [18] was greater than 100 µM throughout. For the same compound, the TGI in [15] and in experiment [16] was greater than 100 µM each time.
`c1ccc2sc(C3(N4CCC5(CC4)OCCO5)CCCCC3)cc2c1`: the TGI in [17], in experiment [1], in [2], in [3], in experiment [4] and in [5] was greater than 100 µM each time. Besides, the TGI was greater than 100 µM in experiment [6]; greater than 100 µM in experiment [7]; greater than 100 µM in experiment [8]; greater than 100 µM in [9]; greater than 100 µM in experiment [10]; 54.9 µM in experiment [11]. The TGI in experiment [12] was greater than 100 µM; in [13], 86.4 µM; in [14] it was greater than 100 µM; in experiment [18], greater than 100 µM; in experiment [15] it was greater than 100 µM; in experiment [16], greater than 100 µM.
As for `COc1cc([C@@H]2c3cc4c(cc3[C@@H](OC3OC5COC(C)OC5C(OC(=O)CN5CCN(C)CC5)C3OC(=O)CN3CCN(C)CC3)C3COC(=O)[C@@H]32)OCO4)cc(OC)c1OC(=O)CN1CCN(C)CC1` (some centres undefined), the TGI in experiment [17] is 73.4 µM; in experiment [1], greater than 100 µM; in experiment [2], greater than 100 µM; in experiment [19], greater than 100 µM; in [3] it was greater than 100 µM; in [5] it was greater than 100 µM. Moreover, the TGI is greater than 100 µM in [6]; greater than 100 µM in experiment [7]; greater than 100 µM in experiment [8]; greater than 100 µM in experiment [9]; greater than 100 µM in experiment [10]; 42.6 µM in [11]. The TGI in experiment [12] is 52.8 µM; in experiment [13], greater than 100 µM; in experiment [15], greater than 100 µM.
